This note sets out measurements from patent US8198452B2, “Polymorphic forms and process” (Merck Patent Gesellschaft MIT Beschränkter Haftung, priority 2006, dated 2012).

What all share (type): physicochemical
A short description of series [1]: hygroscopicity of crystalline forms.
Series [2] is described as follows: thermodynamic stability of crystalline forms. The settings on record: versus form A2, A3 (b74 also the amorphous form, especially at room temperature).
Series [3] can be described thus: chemical stability (thermal stability and light stability). The source says: The expression chemical stability includes, but is not limited to, thermal stability and light stability.
The nature of series [4]: stability of the basic, non-salt form.

`CN(C)CCNC(=O)NC[C@H]1CC[C@@H]2[C@H](O1)c1cc(C(F)(F)F)ccc1N[C@H]2c1ccccc1` [Form A1, 1-(2-Dimethylamino-ethyl)-3-((2R,4aS,5R,10bS)-5-phenyl-9-trifluoromethyl-3,4,4a,5,6,10b-hexahydro-2H-pyrano[3,2-c]quinolin-2-ylmethyl)-urea]: in series [1], the hygroscopicity entry is listed as “essentially non-hygroscopic”. Also, the “hygroscopicity compared with other forms” value in series [1] (versus form A2, A3 and the amorphous form, especially at room temperature) was “less hygroscopic than form A2, A3 and the amorphous form”. The “thermodynamic stability compared with other forms” value in series [2] is “thermodynamically more stable than form A2 and A3”. The “chemical stability (shelf-life, thermal stability and light stability)” value in series [3] is given as “better chemical stability”.

Regarding `CN(C)CCNC(=O)NC[C@H]1CC[C@@H]2[C@H](O1)c1cc(C(F)(F)F)ccc1N[C@H]2c1ccccc1` [compound of formula II, 1-(2-Dimethylamino-ethyl)-3-((2R,4aS,5R,10bS)-5-phenyl-9-trifluoromethyl-3,4,4a,5,6,10b-hexahydro-2H-pyrano[3,2-c]quinolin-2-ylmethyl)-urea], in series [4], the “stability in basic, i.e. non-salt, form” value is “especially stable”.
